{
  "source": "paper PMC10555500",
  "about": "“Evaluation of the Antiproliferative Properties of CpRu Complexes Containing N-Methylated Triazaphosphaadamantane Derivatives” (Bioinorganic Chemistry and Applications, 2023)",
  "target": "human serum albumin (HSA) (Homo sapiens, UniProt P02768)",
  "sequence (P02768 25-609)": "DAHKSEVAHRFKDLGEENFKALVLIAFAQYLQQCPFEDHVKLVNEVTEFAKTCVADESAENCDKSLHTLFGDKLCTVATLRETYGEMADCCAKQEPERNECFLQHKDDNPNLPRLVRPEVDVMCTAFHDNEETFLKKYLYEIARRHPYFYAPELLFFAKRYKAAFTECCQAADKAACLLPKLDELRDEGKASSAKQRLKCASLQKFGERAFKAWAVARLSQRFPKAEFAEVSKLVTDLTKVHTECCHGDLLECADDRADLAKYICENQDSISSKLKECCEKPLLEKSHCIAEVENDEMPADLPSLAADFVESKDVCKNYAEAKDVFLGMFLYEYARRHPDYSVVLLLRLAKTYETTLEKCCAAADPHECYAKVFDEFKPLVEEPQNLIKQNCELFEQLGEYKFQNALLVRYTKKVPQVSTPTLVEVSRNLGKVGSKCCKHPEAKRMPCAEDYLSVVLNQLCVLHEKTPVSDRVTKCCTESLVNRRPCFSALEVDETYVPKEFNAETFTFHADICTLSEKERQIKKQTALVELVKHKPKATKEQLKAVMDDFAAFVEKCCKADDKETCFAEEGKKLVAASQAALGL",
  "assay": "Binding to human serum albumin by steady-state and time-resolved Trp214 fluorescence",
  "method": "(§1) The stock solutions of HSA were freshly prepared for each experiment by gently dissolving protein in PBS pH 7.4 (tablets from Fisher) for 1 hour to allow protein to completely hydrate. The concentration of the protein in the stock solutions was determined by spectrophotometry using the molar absorption coefficient at 280 nm ε280(HSA) = 36,850 M^−1·cm^−1 [38].\nIn each essay, all spectroscopic measurements were carried out on individually prepared samples to ensure the same preincubation time at (37.0 ± 0.1)°C, the same % of DMSO in the final samples, and the same exposure to excitation light and to avoid the need for dilution corrections. Moreover, for a direct titration protocol, a highly concentrated stock solution of the compounds in the buffer would be required, which would raise solubility issues. Dimethylsulfoxide (DMSO, from Fisher) was used to prepare concentrated stock solutions of each complex, followed by appropriate dilution to obtain the desired concentration. The DMSO content was kept at 2% (v/v) in PBS pH 7.4 in all samples. Dilutions were carried out immediately before sample preparation.\nFluorescence measurements were performed at 25.0 ± 0.1°C. The final protein concentration in the individually prepared samples (3.72 to 5 μM) was kept constant in each assay, and the complex concentration was varied to obtain desired HSA: Ru-complex molar ratios ranging from 1 : 0.25 to 1 : 10. A control sample containing the same amount of protein and final DMSO content and with no complex was also prepared for each experiment. Appropriate blank samples with no protein but with the same complex concentrations were prepared as well for background correction.\nThe steady-state fluorescence intensity was measured with excitation at 295 nm, and emission spectra were collected with bandwidths of 4 nm for both excitation and emission. For Stern–Volmer plots, the fluorescence intensity with emission at 340 nm was selected because it is near the maximum emission wavelength (so the sensitivity is close to maximum), but it is further to red in relation to the water Raman scattering peak. These values were corrected for the absorption and emission inner filter effects using the absorbance recorded for each sample at the excitation and emission wavelengths used for the steady-state quenching analysis. For time-resolved fluorescence measurements, the single-photon-counting technique was used with nanoLED N-280 (Horiba Jobin Yvon) as the pulsed excitation source (280 nm) and with emission collected at 350 nm (13 nm emission bandwidth), eliminating the contribution of the emission by tyrosine residues.\nThe experimental fluorescence intensity decays of HSA in buffer solution can be described by a sum of exponentials:(1) It=∑i=1npiexp−t/τi, where pi and τi are the pre-exponential factors and lifetime of component i, respectively. The amplitude or normalized pre-exponential of each lifetime component αi is pi/Σipi with Σiαi = 1. Fluorescence decays were analysed by an iterative deconvolution method using the TRFA Data Processor software (version 1.4; Minsk, Belarus), and the instrument response function was obtained using scattering by a colloidal suspension of silica (Ludox®, Sigma-Aldrich) diluted in water. Criteria for judging the quality of the fit were reduced χ^2 close to 1 and a random distribution of weighted residuals and residual autocorrelation.\nTo evaluate changes in the quantum yield by processes affecting the fluorescence lifetimes of HSA, the amplitude-weighted mean fluorescence lifetime ( τ¯ ) was calculated using the following equation:(2) τ¯=∑i=1nαiτi.\nas §1, with “dissolving the” for “dissolving”, “allow the” for “allow”, “of” for “of the”, “M^−1 cm^−1.[8] […]” for “M^−1·cm^−1 [38].”",
  "data": [
    {"compound": "CN1CN2CN(C)C[P]([Ru+2]([P](c3ccccc3)(c3ccccc3)c3ccccc3)[P](c3ccccc3)(c3ccccc3)c3ccccc3)(C1)C2.O=S(=O)([O-])C(F)(F)F.[Cl][Pd][Cl].c1cc[cH-]c1", "note": "[Compound 11, [RuCp(PPh3)2-µ-dmoPTA-1κP-2κ^2N,N′-PdCl2](CF3SO3)]", "values": [
      {"measurement": "Emission intensity of Trp214 relative to value in the absence of compound", "setting": "20 µM compound (1:4 HSA:compound), 24 h, λem 340 nm", "value": "~40", "unit": "%"},
      {"measurement": "Type of quenching", "setting": "HSA-Trp214 fluorescence", "value": "“Dynamic” and static"},
      {"measurement": "Log K′B", "setting": "PBS pH 7.4/2% DMSO, 24 h at 37°C", "value": "4.66 ± 0.07"},
      {"measurement": "K′B (conditional binding constant)", "setting": "PBS pH 7.4/2% DMSO, 24 h at 37°C, fluorescence lifetime Stern–Volmer", "value": "4.58 ± 0.33 × 10^4 M^−1"},
      {"measurement": "Concentration above which aggregate formation with HSA is seen", "setting": "absorption spectra, only in the presence of HSA", "value": "higher than 10 µM"},
      {"measurement": "Spectral shift of Trp214 emission", "setting": "steady-state emission, 24 h incubation", "value": "small blueshift"},
      {"measurement": "Effect on amplitude-weighted mean fluorescence lifetime of HSA-Trp214", "setting": "time-resolved fluorescence, λem 350 nm", "value": "decreased"}
    ]}
  ]
}
